Measurements as given in PubChem BioAssay (NCI).
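96-well plates; 48 h exposure; 5 concentrations. Endpoints by linear interpolation between flanking doses. Not reached: highest tested concentration assigned. At the TGI there is no net growth.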

Columns and labels:
Experiment in all cases: inhibition of tumour cell growth, NCI panel, 48 h
LOX IMVI melanoma = test system: LOX IMVI melanoma
SK-OV-3 ovarian = test system: SK-OV-3 ovarian
U251 CNS = test system: U251 CNS
KM12 colon = test system: KM12 colon
786-0 renal = test system: 786-0 renal
ACHN renal = test system: ACHN renal
BT-549 breast = test system: BT-549 breast
NCI-H226 lung = test system: NCI-H226 lung
OVCAR-8 ovarian = test system: OVCAR-8 ovarian
EKVX NSCLC = test system: EKVX NSCLC
OVCAR-3 ovarian = test system: OVCAR-3 ovarian
OVCAR-5 ovarian = test system: OVCAR-5 ovarian
A498 renal = test system: A498 renal
M14 melanoma = test system: M14 melanoma
UO-31 renal = test system: UO-31 renal
MDA-N = test system: MDA-N
MDA-MB-435 = test system: MDA-MB-435
A549 NSCLC = test system: A549 NSCLC
HCC-2998 colon = test system: HCC-2998 colon
NCI-H23 lung = test system: NCI-H23 lung
HT29 colon = test system: HT29 colon
SF-539 CNS = test system: SF-539 CNS
SW-620 colon = test system: SW-620 colon
SNB-75 CNS = test system: SNB-75 CNS
CAKI-1 renal = test system: CAKI-1 renal
OVCAR-4 ovarian = test system: OVCAR-4 ovarian
UACC-62 melanoma = test system: UACC-62 melanoma
PC-3 prostate = test system: PC-3 prostate
SR leukemia = test system: SR leukemia
SNB-19 CNS = test system: SNB-19 CNS
SK-MEL-28 melanoma = test system: SK-MEL-28 melanoma
K-562 leukemia = test system: K-562 leukemia
NCI-H460 lung = test system: NCI-H460 lung
DU-145 prostate = test system: DU-145 prostate
T-47D breast = test system: T-47D breast
HCT-116 colon = test system: HCT-116 colon
MDA-MB-231 breast = test system: MDA-MB-231 breast
UACC-257 melanoma = test system: UACC-257 melanoma
HOP-62 NSCLC = test system: HOP-62 NSCLC
SN12C renal = test system: SN12C renal
MCF7 breast = test system: MCF7 breast
HCT-15 colon = test system: HCT-15 colon
NCI/ADR-RES ovarian = test system: NCI/ADR-RES ovarian
SK-MEL-2 melanoma = test system: SK-MEL-2 melanoma
HOP-92 NSCLC = test system: HOP-92 NSCLC
SF-295 CNS = test system: SF-295 CNS
IGROV1 ovarian = test system: IGROV1 ovarian
MOLT-4 leukemia = test system: MOLT-4 leukemia
TK-10 renal = test system: TK-10 renal
SK-MEL-5 melanoma = test system: SK-MEL-5 melanoma
SF-268 CNS = test system: SF-268 CNS
CCRF-CEM leukemia = test system: CCRF-CEM leukemia
NCI-H522 lung = test system: NCI-H522 lung
HS 578T breast = test system: HS 578T breast
MALME-3M melanoma = test system: MALME-3M melanoma
HL-60(TB) leukemia = test system: HL-60(TB) leukemia
COLO 205 colon = test system: COLO 205 colon
RXF 393 renal = test system: RXF 393 renal

Measured: TGI

C=C[C@@]1(C)CC(=O)[C@]2(O)[C@@]3(C)[C@@H](OC(C)=O)CCC(C)(C)[C@@H]3[C@H](OC(C)=O)[C@H](OC(C)=O)[C@@]2(C)O1
not listed: TK-10 renal | SK-MEL-5 melanoma | SF-268 CNS | CCRF-CEM leukemia | NCI-H522 lung | HS 578T breast | MALME-3M melanoma | HL-60(TB) leukemia | COLO 205 colon | RXF 393 renal
> 100 µM: all other assays above

CCCNC(=S)/N=C\c1c(O)c2ccccc2oc1=O
not listed: K-562 leukemia | T-47D breast
> 100 µM: all other assays above
